Tests used:
Arabidopsis = assay: Number of rosette leaves (vegetative phase) and of cauline leaves and branches (first inflorescence phase) after hormone or inhibitor treatment; type: in vivo, Arabidopsis thaliana
Protocol: Plants were grown at 23° C. in a 16 h light/8 h dark cycle. The following plant lines were previously described: lfy-1 null and lfy-2 hypomorph mutants; lfy-6 null mutants, 35S:LFY-GR; 35S:LFY; gal-3; gai; pRGA:RGA-GFP; pRGA:RGA-HA; gal-3 rgl2-1 rga-2 35S:RGA-GR; pSPL9:rSPL-FLAG; 35S:AlcR pAlcA:mir156f; and 35S:SPL9-GR and pAP1:AP1-GFP. […] Most plants were in the Columbia background except for 35S:LFY-GR, pRGA:RGA-GFP, and lfy-6 mutants, which were in the Landsberg erecta background. To avoid comparisons of plants in different ecotype backgrounds, we performed crosses between homozygous transgenic plants and conducted all subsequent analyses in the F1 population. […] Statistical analyses were performed on plant phenotypes that are normally distributed. The population size was determined by expedience (tissue or plant amount that could reasonably be obtained).
For mock treatment, 0.01% ethanol (EtOH) with 0.01% Silwet L-77 was used as control. […] For paclobutrazol treatment in wild type to examine the number of rosette and cauline leaves formed (figure S8), wild-type plants were first germinated on MS plates. After 4 days plants were transferred either to MS plates containing 1 μM paclobutrazol or to control MS plates and grown for 6 more days. At day 10, the plants were transplanted to soil. […] For test of the number of rosette or cauline leaves produced under conditions of increased DELLA accumulation/activity (FIG. 4E), WT, 35S:LFY/-, pSPL9:rSPL9-FLAG/-, and 35S:LFY/- pSPL9:rSPL9-FLAG/- were first germinated on MS plates, followed by transfer to MS plates containing 1 μM paclobutrazol or to control MS plates from day 4 to day 10 of age. At day 10, the plants were transplanted onto soil.

APETALA1 (AP1) = assay: AP1 induction (qRT-PCR, pAP1:AP1-GFP imaging) in GR-fusion transgenic plants after treatment; type: in vivo, Arabidopsis thaliana; conditions: 4 hours
Protocol: For mock treatment, 0.01% ethanol (EtOH) with 0.01% Silwet L-77 was used as control. […] For test of AP1 induction in single or double hemizygous transgenic lines (FIG. 4A, C, and figure S9) treatments were performed by spraying 16-day-old plants grown on plates once with 10 μM dexamethasone and/or 10 μM paclobutrazol. Tissues were harvested after 4 hours. […] 16-day-old 35S:AlcR pAlcA:mir156f/- 35S:LFY-GR/- plants were sprayed with 10 μM dexamethasone plus 10 μM paclobutrazol and exposed to ethanol vapor or water control. Tissues were harvested after 4 hours. […]
For qRT-PCR, RNA was isolated form entire plants after the switch to reproduction using TRIzol reagent (Invitrogen) and RNeasy Mini kits (Qiagen) and processed as previously described (45). […] Quantitative real-time PCR was performed using Power SYBR green mastermix (Applied Biosystems). The mean and standard error were determined using three technical replicates from one representative experiments. […]
For imaging of GFP fluorescence, inflorescence apices were dissected to remove older flowers and imaged using a Leica confocal microscope (Leica, LCS SL) equipped with an argon-krypton ion laser with the appropriate filter sets for visualizing GFP. […]

[1] = wild-type plants, MS plates containing 1 μM paclobutrazol day 4 to day 10, versus control plates

CC(C)(C)[C@@H](O)[C@@H](Cc1ccc(Cl)cc1)n1cncn1 (racemic) [paclobutrazol]
number of cauline leaves formed (Arabidopsis; 35S:LFY pSPL9:rSPL9-FLAG plants, 1 μM paclobutrazol day 4 to day 10, mean±SEM, 35S:LFY plants 2.5±0.2): 0.3±0.1
number of branches and cauline leaves (duration of the first inflorescence phase) (Arabidopsis; [1]): fewer
number of rosette leaves (duration of the vegetative phase) (Arabidopsis; [1]): more
pAP1:AP1-GFP expression in young flower primordia (APETALA1 (AP1); 35S:LFY-GR plants, Dex 10 μM plus PAC 10 μM, confocal imaging): increase in AP1-GFP
production of AP1 in young flower primordia (APETALA1 (AP1); LFY-GR plants, 10 μM paclobutrazol simultaneously with 10 μM dexamethasone, relative to either alone): increased production of AP1
